Data published in US20250099634A1, “METHOD OF TREATING CANCER” (Novartis AG, priority 2023, published 2025).
Where two headings read alike, the source gives them in different places.

Experiments:
[1] = test system: Grade 2 and Grade 3 advanced GEP-NET; assay: NETTER-2 Progression-Free Survival (PFS), central review using RECIST 1.1; assay type: in vivo, human; conditions: Full Analysis Set; for Kaplan-Meier event-free estimates (95% CI): PFS
Protocol: The primary efficacy end-point is PFS as measured by objective tumor response, which is determined by RECIST criteria, Version 1.1 (Eisenhauer, et al., 2009). Tumor response will be assessed locally and centrally.
It is recommended that for each patient identical acquisition and reconstruction protocols be used at all time-points. Central, blinded, real-time IRC (Independent Review Committee) assessment will be conducted for determining progressive disease. Changes from randomization date will be assessed at week 16±1, week 24±1 and then every 12±1 weeks until the PFS primary analysis End-Point has been reached, then until Week 72 after randomization, unless the patient progresses or dies.
The primary endpoint of the study is progression-free survival (PFS), defined as the time from the date of randomization to the date of the first documented progression or death due to any cause. PFS will be assessed via central review according to RECIST 1.1.
The stratification will be based on following randomization stratification factors (grade: G2 vs. G3; and tumor origin: pNET vs other origin).
Analyses will be based on the FAS population according to the randomized treatment group and strata assigned at randomization. The PFS distribution will be estimated using the Kaplan-Meier method, and Kaplan-Meier curves, median and associated 95% confidence intervals will be presented for each treatment group. The hazard ratio for PFS will be calculated, along with its 95% confidence interval, from a stratified Cox model using the same stratification factors as for the log-rank test.

[2] = NETTER-2 deaths (Safety Set); assay type: in vivo, human
[3] = All grades, randomized treatment period, Safety Set
[4] = Grade >=3, randomized treatment period, Safety Set
[5] = all grades, randomized treatment period
[6] = most frequent AEs, summary table

## C[C@@H](O)[C@@H]1NC(=O)[C@H](CCCCN)NC(=O)[C@@H](Cc2c[nH]c3ccccc23)NC(=O)[C@H](Cc2ccccc2)NC(=O)[C@@H](NC(=O)[C@H](N)Cc2ccccc2)CSSC[C@@H](C(=O)N[C@H](CO)[C@@H](C)O)NC1=O [Octreotide LAR, octreotide]
[1]; 4 months
  Kaplan-Meier event-free estimates (95% CI): 73.5 (61.2, 82.4) %
[1]; 6 months
  Kaplan-Meier event-free estimates (95% CI): 64.5 (51.8, 74.6) %
[1]; 9 months
  Kaplan-Meier event-free estimates (95% CI): 46.0 (33.4, 57.7) %
[1]; 12 months
  Kaplan-Meier event-free estimates (95% CI): 42.4 (30.0, 54.3) %
[1]; 15 months
  Kaplan-Meier event-free estimates (95% CI): 36.4 (24.3, 48.5) %
[1]; 18 months
  Kaplan-Meier event-free estimates (95% CI): 29.2 (17.7, 41.7) %
[1]; 24 months
  Kaplan-Meier event-free estimates (95% CI): 19.5 (9.1, 32.7) %
[1]
  PFS Events: 46 (61.3) n (%)
  PFS events: Deaths: 5 (6.7) n (%)
  PFS events: Progression: 41 (54.7) n (%)
[1]; central review, RECIST 1.1
  Median PFS (95% CI): 8.5 (7.7, 13.8) months
  PFS 25th percentile (95% CI): 3.9 (3.7, 5.7) months
  PFS 75th percentile (95% CI): 19.3 (13.8, NE) months
[1]; central review, RECIST 1.1, listed as High-dose Octreotide
  Median PFS (95% CI): 8.5 months
[1]; central review, RECIST 1.1, listed as high-dose Octreotide
  Median PFS (95% CI): 8.5 (7.7, 13.8) months
[2]; Safety Set
  Number of Subjects who Died (Overall): 14 (19.2) n (%)
  Number of Subjects who Died (Overall), primary reason Adverse Event: 1 (1.4) n (%)
  Number of Subjects who Died on-treatment in cross-over period (within 30 days of last dose), primary reason Disease under Study: 1 (1.4) n (%)
  Number of Subjects who Died on-treatment in randomized treatment period (within 30 days of last dose), primary reason Disease under Study: 4 (5.5) n (%)
  Number of subjects who died in the post-treatment follow up period: 9 (12.3) n (%)
  Number of subjects who died in the post-treatment follow up period, primary reason Adverse Event: 1 (1.4) n (%)
  Number of subjects who died in the post-treatment follow up period, primary reason Disease under Study: 8 (11.0) n (%)
[2]; during the study
  cause of death: adverse event: 1.4%
  subjects died during the study: 19.2%
[2]; randomized treatment period
  subjects died within 30 days after the last dose: 5.5%
[3]
  AEs leading to discontinuation of Any Treatment (Lutathera, Octreotide): 2 (2.7) n (%)
  AEs leading to discontinuation of Octreotide: 2 (2.7) n (%)
  AEs leading to dose interruption of Any Treatment (Lutathera, Octreotide): 11 (15.1) n (%)
  AEs leading to dose interruption of Octreotide: 11 (15.1) n (%)
  AEs leading to dose reduction of Any Treatment (Lutathera, Octreotide): 1 (1.4) n (%)
  AEs leading to dose reduction of Octreotide: 1 (1.4) n (%)
  Adverse event: Abdominal pain: 20 (27.4) n (%)
  Adverse event: Alanine aminotransferase increased: 10 (13.7) n (%)
  Adverse event: Alopecia: 1 (1.4) n (%)
  Adverse event: Anaemia: 5 (6.8) n (%)
  Adverse event: Aspartate aminotransferase increased: 8 (11.0) n (%)
  Adverse event: Asthenia: 9 (12.3) n (%)
  Adverse event: COVID-19: 10 (13.7) n (%)
  Adverse event: Constipation: 6 (8.2) n (%)
  Adverse event: Decreased appetite: 7 (9.6) n (%)
  Adverse event: Diarrhoea: 25 (34.2) n (%)
  Adverse event: Gamma-glutamyltransferase increased: 8 (11.0) n (%)
  Adverse event: Headache: 5 (6.8) n (%)
  Adverse event: Hyperglycaemia: 11 (15.1) n (%)
  Adverse event: Lymphocyte count decreased: 0 n (%)
  Adverse event: Oedema peripheral: 6 (8.2) n (%)
  Adverse event: Platelet count decreased: 4 (5.5) n (%)
  Adverse event: Vomiting: 6 (8.2) n (%)
  Adverse event: Weight increased: 5 (6.8) n (%)
  Adverse event: White blood cell count decreased: 3 (4.1) n (%)
  Adverse events: 69 (94.5) n (%)
  Adverse events Related to Any Treatment: 43 (58.9) n (%)
  Adverse events Related to Octreotide: 43 (58.9) n (%)
  Adverse events: Number of subjects with at least one event: 69 (94.5) n (%)
[4]
  AEs leading to discontinuation of Any Treatment (Lutathera, Octreotide): 2 (2.7) n (%)
  AEs leading to discontinuation of Octreotide: 2 (2.7) n (%)
  AEs leading to dose interruption of Any Treatment (Lutathera, Octreotide): 5 (6.8) n (%)
  AEs leading to dose interruption of Octreotide: 5 (6.8) n (%)
  AEs leading to dose reduction of Any Treatment (Lutathera, Octreotide): 1 (1.4) n (%)
  AEs leading to dose reduction of Octreotide: 1 (1.4) n (%)
  Adverse event: Abdominal pain: 3 (4.1) n (%)
  Adverse event: Alanine aminotransferase increased: 2 (2.7) n (%)
  Adverse event: Alopecia: 0 n (%)
  Adverse event: Anaemia: 1 (1.4) n (%)
  Adverse event: Aspartate aminotransferase increased: 2 (2.7) n (%)
  Adverse event: Asthenia: 0 n (%)
  Adverse event: COVID-19: 0 n (%)
  Adverse event: Constipation: 0 n (%)
  Adverse event: Decreased appetite: 0 n (%)
  Adverse event: Diarrhoea: 1 (1.4) n (%)
  Adverse event: Gamma-glutamyltransferase increased: 2 (2.7) n (%)
  Adverse event: Headache: 0 n (%)
  Adverse event: Hyperglycaemia: 2 (2.7) n (%)
  Adverse event: Lymphocyte count decreased: 0 n (%)
  Adverse event: Oedema peripheral: 1 (1.4) n (%)
  Adverse event: Platelet count decreased: 0 n (%)
  Adverse event: Vomiting: 1 (1.4) n (%)
  Adverse event: Weight increased: 0 n (%)
  Adverse event: White blood cell count decreased: 0 n (%)
  Adverse events: 20 (27.4) n (%)
  Adverse events Related to Any Treatment: 3 (4.1) n (%)
  Adverse events Related to Octreotide: 3 (4.1) n (%)
  Adverse events: Number of subjects with at least one event: 20 (27.4) n (%)
[5]
  adverse event by preferred term: abdominal pain: 27.4%
  adverse event by preferred term: diarrhoea: 34.2%
[6]
  Incidence of AEs: Abdominal pain: 20 (27.4) (%)
  Incidence of AEs: Diarrhoea: 25 (34.2) (%)
Randomized treatment period
  AEs leading to discontinuation of Lutathera and/or Octreotide: 2.7%
  AEs leading to discontinuation of Octreotide: 2.7%
  Any AEs: 94.5%
  Grade 3/4 AE: GGT increased: 2.7%
  Grade 3/4 AE: Lymphocyte count decreased: 0%
  Grade 3/4 AE: abdominal pain: 4.1%
  Grade 3/4 AE: small intestinal obstruction: 0%
  Grade ≥3 AEs: 27.4%
  Grade ≥3 AEs, Treatment-related: 4.1%
